The record followed here is patent US8232275B2, “2,2-bis-(hydroxymethyl)cyclopropylidenemethyl-purines and -pyrimidines as antiviral agents” (Wayne State University, priority 2002, dated 2012).

The test system of series [1] is HCMV. In words: HCMV plaque reduction assay in HFF cells. The series is classed as cell-based, human cytomegalovirus (HCMV). Conditions: Human betaherpesvirus 5, HFF host cells. The procedure:
(§1) Cells and viruses. The routine growth and passage of KB cells was performed in monolayer cultures using minimal essential medium (MEM) with either Hanks salts [MEM(H)] or Earle salts [MEM(E)] supplemented with 10% calf serum. The sodium bicarbonate concentration was varied to meet the buffering capacity required. Cultures of diploid human foreskin fibroblasts (HFF) or MRC-5 cells were grown in medium consisting of MEM(E) with 10% fetal bovine serum. Cells were passaged at 1:2 to 1:10 dilutions according to conventional procedures by using 0.05% trypsin plus 0.02% EDTA in a HEPES buffered salt solution (HBS) (Shipman, C., Jr., Proc. Soc. Exp. Biol. 130:305-310 (1969)) as described previously. Turk, S. R., et al., Antimicrob. Agents Chemother. 31:544-550 (1987). HFF and MRC-5 cells were passaged only at 1:2 dilutions. CEM cells were maintained in suspension culture as detailed previously. Kucera, L. S., et al., AIDS Res. Human Retroviruses 9:307-314 (1993).
(§2) Virological procedures. Stock HCMV was prepared by infecting HFF cells at a multiplicity of infection (m.o.i.) of <0.01 plaque-forming units (p.f.u.) per cell. Cell growth medium was changed every four days until cytopathology was evident in all cells (approximately 21 days). Supernatant fluids were retained as the virus stock. High titer HSV-1 stocks were prepared by infecting KB cells at an m.o.i. of <0.1 as detailed previously. Turk, S. R., et al., Antimicrob. Agents Chemother. 31:544-550 (1987). Virus titers were determined using monolayer cultures of HFF cells for HCMV and monolayer cultures of BSC-1 cells for HSV-1 as described earlier. Prichard, M. N. et al., J. Virol. Methods 28:101-106 (1990). Briefly, HFF or BSC-1 cells were planted as described above in 96-well cluster dishes and incubated overnight at 37° C. in a humidified 3% CO2-97% air atmosphere. The next day cultures were inoculated with HCMV or HSV-1 and serially diluted 1:3 across the remaining eleven columns of the 96-well plate. Cultures were incubated at 37° C. for 2 hr to permit virus adsorption and then virus inoculum was replaced with 0.2 mL of fresh medium. Cultures were incubated for seven days for HCMV, two or three days for HSV-1, medium was removed, and the cell sheets were stained with 0.1% crystal violet in 20% methanol. Plaques were enumerated under 20-fold magnification in wells having the dilution which gave 5 to 20 plaques per well. Virus titers were calculated according to the following formula: Titer (p.f.u./mL)=number of plaques×5×3^n; where n represents the nth dilution of the virus used to infect the well in which plaques were enumerated.
Assays for Antiviral Activity. (a) HCMV. The effect of compounds on the replication of HCMV has been measured using a plaque reduction assay. HFF cells in 24-well cluster dishes were infected with approximately 100 p.f.u. of HCMV per cm^2 cell sheet using the procedures detailed above. Following virus adsorption, compounds dissolved in growth medium were added to duplicate wells in three to six selected concentrations. Following incubation at 37° C. for 7 to 10 days, cell sheets were fixed, stained with crystal violet and microscopic plaques enumerated as described above. Drug effects were calculated as a percentage of reduction in number of plaques in the presence of each drug concentration compared to the number observed in the absence of drug. Ganciclovir (DHPG) was used as a positive control in all experiments.
Data Analysis. Dose-response relationships were constructed by linearly regressing the percent inhibition of parameters derived in the preceding sections against log drug concentrations. Fifty-percent inhibitory (IC50) concentrations were calculated from the regression lines. Samples containing positive controls (acyclovir for HSV-1, ganciclovir for HCMV, and 2-acetylpyridine thiosemicarbazone for cytotoxicity) were used in all assays. […]
(In general: Plaques are areas of infected cells; plaque reduction assays count them against a control.)

In series [2] the test system is HSV-1. In words: HSV-1 ELISA in BSC-1 cells. The series is classed as cell-based, herpes simplex virus type 1 (HSV-1). Conditions: Human alphaherpesvirus 1. The protocol: as §1, §2
Assays for Antiviral Activity. (b) HSV-1. An enzyme-linked immunosorbent assay (ELISA) was employed to detect HSV-1. 96-well cluster dishes were planted with BSC-1 cells at 10,000 cells per well, in a total volume of 200 μL per well of MEM(E) plus 10% calf serum. After overnight incubation at 37° C., drug and HSV-1 was added at the rate of 100 PFU/well. ELISA plates were blocked with 200 μL per well of 10% calf serum and 0.05% tween in HBS. After incubation for 30 minutes, the blocking agent was rinsed two times with HBS-T. A 1:400 dilution of AP conjugated rabbit anti-HSV-1 antibody in HBS-F was added. Plates were sealed with adhesive sheet, and incubated on rocker for one hour at 37° C. Plates were developed in the dark with […] per well of substrate solution containing p-nitrophenyl phosphate. Plates were read at 492 nm. Drug effects were calculated as a percentage of the reduction in virus in the presence of each drug concentration compared to the titer obtained in the absence of drug. Acyclovir was used as a positive control in all experiments.
Data Analysis. Dose-response relationships were constructed by linearly regressing the percent inhibition of parameters derived in the preceding sections against log drug concentrations. Fifty-percent inhibitory (IC50) concentrations were calculated from the regression lines. […]
A general note: In an ELISA, binding on a coated surface is turned into a signal by an enzyme label.

Series [3] is described as follows: Cytotoxicity in stationary HFF cells, microscopic (visual) inspection. The series is classed as cell-based. Conditions: human, stationary HFF cells (uninfected cells of the plaque assays), read-out: IC50 (μM) HFF (visual). The procedure: (§3) Cytotoxicity assays. Two different assays were used to explore cytotoxicity of selected compounds as we have detailed previously. (i) Cytotoxicity produced in stationary HFF cells was determined by microscopic inspection of cells used in plaque assays which were not affected by the virus. Turk, S. R., et al., Antimicrob. Agents Chemother. 31:544-550 (1987). (ii) The effect of compounds during two population doublings of KB cells was determined by crystal violet staining and spectrophotometric quantitation of dye eluted from stained cells. Prichard, M. N., et al., Antimicrob. Agents Chemother. 35:1060-1065 (1991). Data Analysis. Dose-response relationships were constructed by linearly regressing the percent inhibition of parameters derived in the preceding sections against log drug concentrations. Fifty-percent inhibitory (IC50) concentrations were calculated from the regression lines. Samples containing positive controls (acyclovir for HSV-1, ganciclovir for HCMV, and 2-acetylpyridine thiosemicarbazone for cytotoxicity) were used in all assays. Results from sets of assays were rejected if inhibition by the positive control deviated from its mean response by >±1.5 standard deviations.

The subject of series [4] is KB cells. In words: Cytotoxicity in KB cells, growth during two population doublings (crystal violet). The series is classed as cell-based. The protocol: as §3

Each structure is given as a SMILES string. Marks after values point to notes of the source that are not given here. A value given as a limit tells only on which side of the number the result lay.

`Nc1nc(NC2CC2)c2ncn(/C=C3/CC3(CO)CO)c2n1` [Compound 1h, (Z)-2-Amino-6-cyclopropylamino-9-{[2,2-bis-(hydroxymethyl)-cyclopropylidene]methyl}purine]: the melting point is 195 to 196 °C.
`Nc1ccn(/C=C2\CC2(CO)CO)c(=O)n1` [Compound 2e, (E)-1-{[2,2-bis-(hydroxymethyl)cyclopropylidene]methyl}cytosine] had a melting point of 249 to 251 °C.
On to `Cc1cn(/C=C2/CC2(CO)CO)c(=O)[nH]c1=O` [Compound 1f, (Z)-1-{[2,2-Bis-(hydroxymethyl)cyclopropylidene]methyl}-thymine], for which the values for the IC50 in series [1] and in series [2] were over 100 µM and 10 µM, respectively. Further, the CC50 in series [3] is over 100 µM. The “IC50 (μM) KB (growth)” value in series [4] (human) is over 100 µM.
For the molecule `Nc1nc2c(ncn2/C=C2\CC2(CO)CO)c(=O)[nH]1` [Compound 2c, (E)-9-{[2,2-Bis-(hydroxymethyl)cyclopropylidene]methyl}-guanine], the IC50 in series [1] was over 100 µM; in series [2], 39 µM. For the same molecule, in series [3], the CC50 is over 100 µM. In series [4] (human), the “IC50 (μM) KB (growth)” value is over 100 µM.
In turn, `Nc1nc(O)c2ncn(COC(CO)CO)c2n1` [Ganciclovir, reference compound] registered an IC50 in series [1] of 4.1 µM. Further, the CC50 in series [3] was over 100 µM.
Consider `Nc1ccn(/C=C2/CC2(CO)CO)c(=O)n1` [Compound 1e, (Z)-1-{[2,2-Bis-(hydroxymethyl)cyclopropylidene]methyl}-cytosine], for which the melting point lay in the range of 250 to 253 °C. For the same molecule, the IC50 in series [1] stood at 32 µM. The same molecule displayed a half-inhibitory concentration (IC50) in series [2] of over 100 µM. Further, the CC50 in series [3] was over 100 µM. In addition, in series [4] (human), the “IC50 (μM) KB (growth)” value was over 100 µM.
Take `Nc1nc2c(ncn2COCCO)c(=O)[nH]1` [Acyclovir, reference compound]: the IC50 in series [2] was determined as 0.15 µM. Further, in series [4] (cytotoxicity, KB cell growth), the “IC50 (μM) KB (growth)” value is >100 ^b μM.
Consider `Nc1ncnc2c1ncn2/C=C1/CC1(CO)CO` [Compound 1a, (Z)-9-{(2,2-Bis-(hydroxymethyl)cyclopropylidene)methyl}-adenine], for which the figures for the IC50 in series [1] and in series [2] were 3.6 µM and 50 µM, respectively. Moreover, the CC50 in series [3] is over 100 µM. The “IC50 (μM) KB (growth)” value in series [4] (human) is over 100 µM.
The molecule `Nc1nc(N)c2ncn(/C=C3/CC3(CO)CO)c2n1` [Compound 1o, (Z)-2,6-Diamino-9-{[2,2-bis-(hydroxymethyl)cyclopropylidene]-methyl}-purine] yielded a melting point of 249 to 250 °C. This molecule came in with an IC50 in series [1] of 15 µM. This molecule also had an IC50 in series [2] of over 100 µM. Besides, in series [3], the CC50 was over 100 µM. In addition, in series [4] (human), the “IC50 (μM) KB (growth)” value is over 100 µM.
For `COc1nc(N)nc2c1ncn2/C=C1/CC1(CO)CO` [Compound 1g, (Z)-2-amino-6-methoxy-9-{[2,2-bis-(hydroxymethyl)cyclopropylidene]-methyl}purine], the melting point was in the range of 188 to 189 °C. Besides, the IC50 in series [1] amounted to 3.5 µM. Besides, in series [2], the IC50 is over 100 µM. The CC50 in series [3] was over 100 µM. The “IC50 (μM) KB (growth)” value in series [4] (human) was over 100 µM.
In turn, `COc1nc(N)nc2c1ncn2/C=C1\CC1(CO)CO` [Compound 2g, (E)-2-amino-6-methoxy-9-{[2,2-bis-(hydroxymethyl)cyclopropylidene]-methyl}purine] returned a melting point of 179 to 180 °C.
As to `Nc1nc2c(ncn2/C=C2/CC2(CO)CO)c(=O)[nH]1` [Compound 1c, (Z)-9-{[2,2-Bis-(hydroxymethyl)cyclopropylidene]methyl}-guanine], the figures for the IC50 in series [1] and in series [2] were 0.46 µM and over 100 µM, respectively. Further, the CC50 in series [3] is over 100 µM. For the same molecule, the “IC50 (μM) KB (growth)” value in series [4] (human) is over 100 µM.
For `Nc1nc(N)c2ncn(/C=C3\CC3(CO)CO)c2n1` [Compound 2o, (E)-2,6-Diamino-9-{[2,2-bis-(hydroxymethyl)cyclopropylidene]-methyl}purine], the melting point was 219 to 220 °C.
The same measure, in the same setting: the same measure for `Nc1nc(NC2CC2)c2ncn(/C=C3\CC3(CO)CO)c2n1` [Compound 2h, (E)-2-Amino-6-cyclopropylamino-9-{[2,2-bis-(hydroxymethyl)-cyclopropylidene]methyl}purine]: 164 to 165 °C.

One may read the melting point as the temperature of the solid-liquid transition. One may read the IC50 as the concentration at which inhibition is half-maximal. High values mean weaker potency in that assay, low ones greater potency in that assay.
